Source: ChEMBL document CHEMBL1138016, “Azaadamantane benzamide 5-HT4 agonists: gastrointestinal prokinetic SC-54750” (Bioorg Med Chem Lett, 2004)

How the values were obtained:
Adrenergic receptor beta = Adrenergic receptor beta (Homo sapiens, UniProt P08588+P07550+P13945); test: Concentration required for inhibition of beta adrenergic receptor; format: protein assay
[1] = Concentration required for inhibition of 5-hydroxytryptamine 1 receptor using [3H]-5-HT as the radioligand
[2] = Concentration required for inhibition of 5-hydroxytryptamine 3 receptor using [3H]GR-65630 as the radioligand
[3] = biological target: Serotonin 2 (5-HT2) receptor (Homo sapiens, UniProt P41595+P28223+P28335); format: protein assay
[4] = Effective dose required towards 5-hydroxytryptamine 4 receptor as agonism in rat tunica muscularis mucosae (TMM)
[5] = Concentration required for inhibition of Dopamine receptor D2 using [3H]spiperone as the radioligand
[6] = Concentration required for inhibition of Dopamine receptor D1 using [3H]SCH-23,390 as the radioligand
[7] = biological target: T1, Adrenergic receptor alpha-2 (Homo sapiens, UniProt P08913+P18825+P18089); test: Concentration required for inhibition of alpha-2 adrenergic receptor; format: protein assay
T1 sequence (P08913 whole entry): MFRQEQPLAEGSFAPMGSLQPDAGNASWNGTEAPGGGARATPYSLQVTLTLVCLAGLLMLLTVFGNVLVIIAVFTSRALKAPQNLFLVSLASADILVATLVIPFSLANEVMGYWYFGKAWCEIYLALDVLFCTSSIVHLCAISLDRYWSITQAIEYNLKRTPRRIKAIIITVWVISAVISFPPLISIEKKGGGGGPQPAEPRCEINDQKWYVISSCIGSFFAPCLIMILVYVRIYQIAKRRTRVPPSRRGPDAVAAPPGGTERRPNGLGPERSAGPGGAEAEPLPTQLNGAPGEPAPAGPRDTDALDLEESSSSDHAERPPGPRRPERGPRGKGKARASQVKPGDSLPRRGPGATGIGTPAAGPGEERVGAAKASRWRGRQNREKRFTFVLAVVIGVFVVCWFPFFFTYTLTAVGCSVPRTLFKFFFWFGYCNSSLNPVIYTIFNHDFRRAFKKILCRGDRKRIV
T1 sequence (P18825 whole entry): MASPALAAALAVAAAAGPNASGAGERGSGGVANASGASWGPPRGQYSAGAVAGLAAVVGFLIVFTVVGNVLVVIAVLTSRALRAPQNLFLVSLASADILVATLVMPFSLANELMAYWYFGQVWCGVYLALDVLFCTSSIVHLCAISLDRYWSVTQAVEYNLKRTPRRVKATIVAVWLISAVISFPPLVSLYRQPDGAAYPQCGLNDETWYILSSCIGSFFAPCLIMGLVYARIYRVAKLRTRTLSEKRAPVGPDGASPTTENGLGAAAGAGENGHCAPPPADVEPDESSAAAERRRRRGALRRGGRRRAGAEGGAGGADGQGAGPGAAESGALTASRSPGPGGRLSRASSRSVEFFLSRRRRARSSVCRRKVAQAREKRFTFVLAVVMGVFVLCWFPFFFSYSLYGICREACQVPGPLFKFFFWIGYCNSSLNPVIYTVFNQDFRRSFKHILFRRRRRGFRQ
T1 sequence (P18089 whole entry): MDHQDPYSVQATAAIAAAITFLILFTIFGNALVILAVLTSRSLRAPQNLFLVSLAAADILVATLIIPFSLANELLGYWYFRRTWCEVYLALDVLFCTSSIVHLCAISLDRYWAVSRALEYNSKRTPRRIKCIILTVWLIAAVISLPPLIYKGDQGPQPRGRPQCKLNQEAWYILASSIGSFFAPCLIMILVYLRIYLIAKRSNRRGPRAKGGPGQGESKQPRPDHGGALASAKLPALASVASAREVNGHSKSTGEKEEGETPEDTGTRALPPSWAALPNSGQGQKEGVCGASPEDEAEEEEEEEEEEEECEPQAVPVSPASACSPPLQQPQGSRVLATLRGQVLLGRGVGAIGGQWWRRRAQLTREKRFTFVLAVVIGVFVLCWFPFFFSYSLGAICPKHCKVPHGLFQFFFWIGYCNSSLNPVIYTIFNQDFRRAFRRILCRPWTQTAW

[8] = biological target: T2, Adrenergic receptor alpha-1 (Homo sapiens, UniProt P35348+P25100+P35368); test: Concentration required for inhibition of alpha-1 adrenergic receptor using [3H]prazosin as the radioligand; format: protein assay
T2 sequence (P35348 whole entry): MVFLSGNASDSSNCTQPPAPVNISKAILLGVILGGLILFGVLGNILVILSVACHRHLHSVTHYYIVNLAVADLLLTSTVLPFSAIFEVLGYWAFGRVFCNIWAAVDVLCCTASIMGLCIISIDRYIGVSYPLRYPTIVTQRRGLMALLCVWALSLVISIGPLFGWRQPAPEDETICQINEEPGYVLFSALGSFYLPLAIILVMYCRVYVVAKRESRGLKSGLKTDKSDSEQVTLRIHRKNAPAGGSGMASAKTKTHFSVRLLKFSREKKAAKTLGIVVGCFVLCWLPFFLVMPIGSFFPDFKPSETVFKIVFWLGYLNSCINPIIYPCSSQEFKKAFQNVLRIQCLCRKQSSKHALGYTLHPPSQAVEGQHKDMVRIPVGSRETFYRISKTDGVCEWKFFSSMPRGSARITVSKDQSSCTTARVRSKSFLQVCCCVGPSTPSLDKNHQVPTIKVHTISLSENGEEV
T2 sequence (P25100 whole entry): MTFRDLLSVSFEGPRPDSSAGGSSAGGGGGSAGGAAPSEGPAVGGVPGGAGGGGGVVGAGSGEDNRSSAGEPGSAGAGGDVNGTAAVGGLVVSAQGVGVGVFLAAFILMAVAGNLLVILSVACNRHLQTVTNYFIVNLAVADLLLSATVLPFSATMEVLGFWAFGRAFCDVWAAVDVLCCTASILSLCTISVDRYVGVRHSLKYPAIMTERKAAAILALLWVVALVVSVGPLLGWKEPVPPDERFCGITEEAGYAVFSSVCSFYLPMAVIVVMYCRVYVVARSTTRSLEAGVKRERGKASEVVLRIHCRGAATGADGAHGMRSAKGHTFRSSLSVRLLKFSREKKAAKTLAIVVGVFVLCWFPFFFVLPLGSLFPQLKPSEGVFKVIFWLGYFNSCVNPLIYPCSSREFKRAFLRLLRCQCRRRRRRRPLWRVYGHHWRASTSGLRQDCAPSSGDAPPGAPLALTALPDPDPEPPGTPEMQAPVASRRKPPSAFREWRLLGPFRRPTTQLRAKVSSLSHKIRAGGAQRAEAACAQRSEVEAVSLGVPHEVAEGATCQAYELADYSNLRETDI
T2 sequence (P35368 whole entry): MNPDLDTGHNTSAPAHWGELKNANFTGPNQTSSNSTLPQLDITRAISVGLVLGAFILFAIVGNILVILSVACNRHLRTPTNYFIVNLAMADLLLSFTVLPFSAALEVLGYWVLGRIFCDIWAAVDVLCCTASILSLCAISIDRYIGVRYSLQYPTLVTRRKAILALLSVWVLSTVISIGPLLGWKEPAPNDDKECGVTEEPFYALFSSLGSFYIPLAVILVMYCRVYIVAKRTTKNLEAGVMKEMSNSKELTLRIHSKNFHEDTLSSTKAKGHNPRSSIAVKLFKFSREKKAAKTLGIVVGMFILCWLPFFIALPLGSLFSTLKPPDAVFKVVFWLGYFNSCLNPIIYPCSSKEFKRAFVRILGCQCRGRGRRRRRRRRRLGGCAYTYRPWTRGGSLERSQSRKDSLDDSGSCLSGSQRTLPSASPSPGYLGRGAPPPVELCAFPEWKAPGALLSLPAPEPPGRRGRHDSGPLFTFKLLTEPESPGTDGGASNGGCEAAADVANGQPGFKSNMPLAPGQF

[9] = biological target: T3, Serotonin 3 receptor (5HT3) (Mus musculus) (UniProt Q9JHJ5+P23979); test: Percent inhibition of 5-hydroxytryptamine 3 receptor after intraperitoneal administration at dose of 3 mpk was determined in mice by Von Bezold-Jarisch reflex assay
T3 sequence (P23979 whole entry, looked up): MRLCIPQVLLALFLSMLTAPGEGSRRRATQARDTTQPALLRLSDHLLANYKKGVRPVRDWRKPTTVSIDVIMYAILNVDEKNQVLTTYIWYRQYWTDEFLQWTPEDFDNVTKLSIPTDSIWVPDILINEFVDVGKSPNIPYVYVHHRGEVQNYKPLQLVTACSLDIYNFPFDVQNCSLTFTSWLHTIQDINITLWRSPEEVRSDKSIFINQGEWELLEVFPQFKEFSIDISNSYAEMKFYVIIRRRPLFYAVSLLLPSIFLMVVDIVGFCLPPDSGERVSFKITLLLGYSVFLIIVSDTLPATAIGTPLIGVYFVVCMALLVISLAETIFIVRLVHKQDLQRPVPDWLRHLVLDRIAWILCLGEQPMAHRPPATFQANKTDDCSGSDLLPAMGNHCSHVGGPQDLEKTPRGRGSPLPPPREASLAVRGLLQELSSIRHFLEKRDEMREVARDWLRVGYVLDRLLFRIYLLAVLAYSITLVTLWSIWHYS
T3 sequence (Q9JHJ5 whole entry, looked up): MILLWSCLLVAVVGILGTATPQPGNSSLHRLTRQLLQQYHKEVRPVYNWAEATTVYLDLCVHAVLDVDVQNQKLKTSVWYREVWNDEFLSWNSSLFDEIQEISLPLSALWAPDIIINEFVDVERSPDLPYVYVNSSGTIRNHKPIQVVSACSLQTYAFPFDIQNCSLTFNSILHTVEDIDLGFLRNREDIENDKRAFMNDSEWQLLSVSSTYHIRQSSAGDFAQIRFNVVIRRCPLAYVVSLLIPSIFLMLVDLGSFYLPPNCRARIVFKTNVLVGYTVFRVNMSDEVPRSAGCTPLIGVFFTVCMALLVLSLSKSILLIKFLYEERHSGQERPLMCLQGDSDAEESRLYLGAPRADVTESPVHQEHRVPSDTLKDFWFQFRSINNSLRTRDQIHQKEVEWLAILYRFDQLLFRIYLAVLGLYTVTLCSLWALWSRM

[10] = biological target: T3, Serotonin 3 receptor (5HT3) (Mus musculus); test: Percent inhibition of 5-hydroxytryptamine 3 receptor after intraperitoneal administration at dose of 10 mpk was determined in mice by Von Bezold-Jarisch reflex assay
[11] = biological target: T3, Serotonin 3 receptor (5HT3) (Mus musculus); test: Percent inhibition of 5-hydroxytryptamine 3 receptor after intraperitoneal administration at dose of 0.3 mpk was determined in mice by Von Bezold-Jarisch reflex assay
[12] = biological target: T3, Serotonin 3 receptor (5HT3) (Mus musculus); test: Percent inhibition of 5-hydroxytryptamine 3 receptor after intraperitoneal administration at dose of 0.03 mpk was determined in mice by Von Bezold-Jarisch reflex assay
[13] = biological target: T3, Serotonin 3 receptor (5HT3) (Mus musculus); test: Percent inhibition of 5-hydroxytryptamine 3 receptor after intraperitoneal administration at dose of 0.1 mpk was determined in mice by Von Bezold-Jarisch reflex assay
[14] = biological target: T3, Serotonin 3 receptor (5HT3) (Mus musculus); test: Percent inhibition of 5-hydroxytryptamine 3 receptor after intraperitoneal administration at dose of 1 mpk was determined in mice by Von Bezold-Jarisch reflex assay
[15] = biological target: T3, Serotonin 3 receptor (5HT3) (Mus musculus); test: Percent inhibition of 5-hydroxytryptamine 3 receptor after intraperitoneal administration at dose of 8 mpk was determined in mice by Von Bezold-Jarisch reflex assay
[16] = biological target: T4, Serotonin 3 (5-HT3) receptor (Rattus norvegicus, UniProt P35563+Q9JJ16); test: Binding affinity towards 5-hydroxytryptamine 3 receptor using [3H]GR-65630 as the radioligand in male rat cortical tissue; format: protein-complex assay
T4 sequence (P35563 whole entry): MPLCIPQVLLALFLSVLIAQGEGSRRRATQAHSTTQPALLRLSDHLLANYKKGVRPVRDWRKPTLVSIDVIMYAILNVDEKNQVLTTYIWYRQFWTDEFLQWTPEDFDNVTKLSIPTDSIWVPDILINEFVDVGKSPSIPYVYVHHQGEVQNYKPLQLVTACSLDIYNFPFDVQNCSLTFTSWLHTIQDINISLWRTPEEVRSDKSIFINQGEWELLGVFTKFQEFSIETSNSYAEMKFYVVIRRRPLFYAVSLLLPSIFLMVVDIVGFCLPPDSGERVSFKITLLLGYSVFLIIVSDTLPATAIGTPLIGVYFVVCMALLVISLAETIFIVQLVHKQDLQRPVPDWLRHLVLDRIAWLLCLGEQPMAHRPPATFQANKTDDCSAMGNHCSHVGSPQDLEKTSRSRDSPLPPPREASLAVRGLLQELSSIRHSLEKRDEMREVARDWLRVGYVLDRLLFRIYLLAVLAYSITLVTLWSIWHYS
T4 sequence (Q9JJ16 whole entry): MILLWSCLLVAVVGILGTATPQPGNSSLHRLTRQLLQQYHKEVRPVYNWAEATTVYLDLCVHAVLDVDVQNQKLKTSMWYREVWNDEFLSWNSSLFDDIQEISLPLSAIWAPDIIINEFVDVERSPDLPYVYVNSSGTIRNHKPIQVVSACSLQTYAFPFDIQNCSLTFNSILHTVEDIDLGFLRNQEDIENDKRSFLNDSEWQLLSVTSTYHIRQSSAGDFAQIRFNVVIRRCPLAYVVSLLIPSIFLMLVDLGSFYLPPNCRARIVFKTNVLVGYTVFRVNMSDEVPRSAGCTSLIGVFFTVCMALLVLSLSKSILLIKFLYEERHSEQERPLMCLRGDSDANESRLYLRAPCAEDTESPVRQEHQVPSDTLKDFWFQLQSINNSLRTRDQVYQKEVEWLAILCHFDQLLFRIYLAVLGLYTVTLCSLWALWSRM

COc1cc(N)c(Cl)cc1C(=O)N[C@@H]1C2CC3CN(C2)CC31 (stereo not given in full)
IC50 (Adrenergic receptor beta): > 10000 nM | IC50 [1]: > 10000 nM | IC50 [2]: 2.3 nM | IC50 [3]: > 10000 nM | ED50 [4]: 51.3 nM | IC50 [5]: > 10000 nM | IC50 [6]: > 10000 nM | IC50 [7]: > 10000 nM | IC50 [8]: > 10000 nM

COc1cc(N)c(Cl)cc1C(=O)NC1C2CC3CC1CN(C3)C2 (stereo in doubt; 9a)
inhibition [9]: 0% | ED50 [4]: 538 nM | inhibition [10]: 85%

COc1cc(N)c(Cl)cc1C(=O)NC1C2CC3CC1CN(C3)C2 (stereo in doubt; 9b)
inhibition [11]: 70% | inhibition [12]: 61% | inhibition [9]: 81% | inhibition [13]: 64% | ED50 [4]: 262 nM | inhibition [14]: 75% | inhibition [10]: 86%

COc1cc(N)c(Cl)cc1C(=O)NCC1C2CC3CC1CN(C3)C2 (stereo in doubt; 9c)
inhibition [11]: 75% | inhibition [12]: 0% | inhibition [13]: 60% | inhibition [15]: 82% | inhibition [14]: 82% | inhibition [10]: 88%

COc1cc(N)c(Cl)cc1C(=O)NCC1C2CC3CC1CN(C3)C2 (stereo in doubt; 9d) [listing 1 of 2 here]
Ki [16]: 144 nM | IC50 [2]: 11 nM

COc1cc(N)c(Cl)cc1C(=O)NCC1C2CC3CC1CN(C3)C2 (stereo in doubt; 9d) [listing 2 of 2 here]
inhibition [9]: 82% | inhibition [14]: 0% | inhibition [10]: 85%

COc1cc(N)c(Cl)cc1C(=O)NC1CCN(CCCOc2ccc(F)cc2)CC1OC (stereo not given) [CISAPRIDE]
IC50 (Adrenergic receptor beta): > 10000 nM | IC50 [1]: > 10000 nM | ED50 [4]: 54.7 nM | IC50 [6]: 1700 nM | IC50 [8]: 30 nM
